Data from ChEMBL document CHEMBL3739338, “Inhibition of carbonic anhydrase isoforms I, II, IV, VII and XII with carboxylates and sulfonamides incorporating phthalimide/phthalic anhydride scaffolds” (Bioorg Med Chem, 2016).

How the values were obtained:
Carbonic anhydrase 2 = Carbonic anhydrase 2 (Homo sapiens, UniProt P00918); test: Inhibition of human carbonic anhydrase-2 preincubated for 15 mins by stopped flow CO2 dehydration assay
Carbonic anhydrase 4 = Carbonic anhydrase 4 (Homo sapiens, UniProt P22748); test: Inhibition of human carbonic anhydrase-4 preincubated for 15 mins by stopped flow CO2 dehydration assay
Carbonic anhydrase 1 = Carbonic anhydrase 1 (Homo sapiens, UniProt P00915); test: Inhibition of human carbonic anhydrase-1 preincubated for 15 mins by stopped flow CO2 dehydration assay
Carbonic anhydrase 1, sequence (P00915 whole entry): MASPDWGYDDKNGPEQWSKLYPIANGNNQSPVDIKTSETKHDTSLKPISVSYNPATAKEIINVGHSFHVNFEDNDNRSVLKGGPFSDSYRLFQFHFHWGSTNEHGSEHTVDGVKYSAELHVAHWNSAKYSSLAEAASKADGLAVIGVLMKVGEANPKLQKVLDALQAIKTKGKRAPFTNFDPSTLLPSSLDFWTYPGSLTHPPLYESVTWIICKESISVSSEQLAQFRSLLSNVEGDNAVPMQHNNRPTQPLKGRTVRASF

Carbonic anhydrase 4, sequence (P22748 whole entry): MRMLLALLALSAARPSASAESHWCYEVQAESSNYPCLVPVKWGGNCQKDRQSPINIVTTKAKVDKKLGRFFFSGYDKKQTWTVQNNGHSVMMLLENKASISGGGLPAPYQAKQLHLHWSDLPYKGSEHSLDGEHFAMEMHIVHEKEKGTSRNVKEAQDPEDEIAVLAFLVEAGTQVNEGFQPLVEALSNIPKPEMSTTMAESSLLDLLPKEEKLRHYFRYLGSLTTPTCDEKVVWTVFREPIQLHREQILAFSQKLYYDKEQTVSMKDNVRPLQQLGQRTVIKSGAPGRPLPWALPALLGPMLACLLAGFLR

SMILES	Ki (Carbonic anhydrase 2)	Ki (Carbonic anhydrase 4)	Ki (Carbonic anhydrase 1)
O=C(Nc1ccccc1C(=O)O)c1ccc2c(c1)C(=O)N(Cc1ccccc1)C2=O	> 10 µM		
O=C(Nc1ccccc1C(=O)O)c1ccc2c(c1)C(=O)N(CCc1ccccc1)C2=O	> 10 µM		
O=C(Nc1ccccc1C(=O)O)c1ccc2c(c1)C(=O)N(c1ccccc1)C2=O	> 10 µM	> 10 µM	> 10 µM
NS(=O)(=O)c1ccc(CN2C(=O)c3ccc(C(=O)Nc4ccccc4C(=O)O)cc3C2=O)cc1	0.0105 µM		
CCOC(=O)c1ccc(N2C(=O)c3ccc(C(=O)Nc4ccccc4C(=O)O)cc3C2=O)cc1	> 10 µM		> 10 µM
O=C(Nc1ccc(Cl)cc1C(=O)O)c1ccc2c(c1)C(=O)OC2=O		> 10 µM	
NS(=O)(=O)c1ccc(CCN2C(=O)c3ccc(C(=O)Nc4ccccc4C(=O)O)cc3C2=O)cc1	0.0138 µM		
Cc1ccc(NC(=O)c2ccc3c(c2)C(=O)OC3=O)c(C(=O)O)c1	> 10 µM		
COc1cc(NC(=O)c2ccc3c(c2)C(=O)OC3=O)c(C(=O)O)cc1OC	> 10 µM	> 10 µM	
O=C(Nc1ccccc1C(=O)O)c1ccc2c(c1)C(=O)OC2=O	> 10 µM		
NS(=O)(=O)c1ccc(N2C(=O)c3ccc(C(=O)Nc4ccccc4C(=O)O)cc3C2=O)cc1	0.0089 µM		
O=C(O)c1ccc(N2C(=O)c3ccc(C(=O)Nc4ccccc4C(=O)O)cc3C2=O)cc1	> 10 µM		> 10 µM
O=C(Nc1ccc(I)cc1C(=O)O)c1ccc2c(c1)C(=O)OC2=O	> 10 µM	> 10 µM	> 10 µM
